Data on eight molecules can be found in ChEMBL document CHEMBL1201862, “PubChem BioAssay data set” (2004).

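Where inhibition never reached the appropriate level, the endpoint shown equals the highest concentration tested. Otherwise, values were interpolated linearly from a five-concentration, 48-hour dose response in 96-well plates. GI50 = concentration required for 50% inhibition of growth.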 The source made the active and inactive calls. Cut-off read from the data, not from the text of the source: active = GI50 up to about 1.1 µM and inactive = higher.

Among the test systems are A549; BT-549; COLO 205; DU-145; HCT-15; HL-60; HOP-92; M14; MDA-MB-435; MDA-N; NCI-H226; NCI-H522; OVCAR-5; OVCAR-8; PC-3; RPMI-8226; RXF 393; SF-268; UACC-257; UO-31.
Assay in all cases: NCI tumour cell line growth inhibition, 48 h

In the case of `COc1ccc2cc(-c3ccc(OC)c(OC)c3)c(=O)oc2c1`, the GI50 in the assay on A549 was > 100 µM (inactive); in the assay with BT-549 it was > 100 µM (inactive); in the assay on COLO 205, > 100 µM (inactive); in the assay on DU-145 it was > 100 µM (inactive); with HCT-15, more than 100 µM; in the assay with HL-60, > 100 µM (inactive). The GI50 with HOP-92, in the assay with M14, in the assay on MDA-MB-435, with MDA-N, in the assay on NCI-H226 and in the assay on NCI-H522 was > 100 µM (inactive) in each case. Also, the GI50 was > 100 µM (inactive) with OVCAR-5; > 100 µM (inactive) in the assay on OVCAR-8; > 100 µM (inactive) in the assay on PC-3; > 100 µM (inactive) in the assay with RPMI-8226; 21.4 µM (inactive) with RXF 393; 62.1 µM (inactive) with SF-268. The GI50 in the assay on UACC-257 and in the assay on UO-31 was > 100 µM (inactive) in each case.

With `C=CCC1(C)CCCN(Cc2ccccc2)C1=O` (stereo not given), the GI50 in the assay on A549 was > 10 µM (inactive); in the assay on BT-549, > 10 µM (inactive); in the assay on COLO 205 it was > 10 µM (inactive); with DU-145, > 10 µM (inactive); in the assay with HCT-15, more than 10 µM; in the assay with HL-60, > 10 µM (inactive). Further, the GI50 in the assay on HOP-92, with M14, with MDA-MB-435, with MDA-N, in the assay on NCI-H226 and in the assay with NCI-H522 was > 10 µM (inactive) in each case. In addition, the GI50 in the assay with OVCAR-5, in the assay on OVCAR-8, in the assay on PC-3, with RPMI-8226, in the assay with RXF 393 and in the assay on SF-268 was > 10 µM (inactive) throughout. The GI50 in the assay on UACC-257 and with UO-31 was > 10 µM (inactive) in each case.

With `CN1CCCC(C(=O)OCC(=O)C2(O)CCC3C4CCC5=CC(=O)CCC5(C)C4C(O)CC32C)C1` (stereo not given), the GI50 in the assay on A549 is 16.4 µM (inactive); in the assay with BT-549 it was 16.7 µM (inactive); with COLO 205 it was 18 µM (inactive); in the assay on DU-145, 18.7 µM (inactive); in the assay on HCT-15, 18.7 µM; in the assay with HL-60 it was 3.69 µM (inactive). Further, the GI50 with HOP-92 is 50.9 µM (inactive); in the assay on M14, 23.2 µM (inactive); in the assay with MDA-MB-435, 12.6 µM (inactive); in the assay on MDA-N, 10.7 µM (inactive); with NCI-H226 it was 17.1 µM (inactive); in the assay on NCI-H522, 17.3 µM (inactive). In addition, the GI50 is 18.1 µM (inactive) in the assay on OVCAR-5; 15 µM (inactive) with OVCAR-8; 11.4 µM (inactive) in the assay on PC-3; 4.23 µM (inactive) in the assay on RPMI-8226; 8.49 µM (inactive) in the assay with RXF 393; 20.9 µM (inactive) in the assay with SF-268. In addition, the GI50 with UACC-257 was 18.3 µM (inactive); in the assay with UO-31 it was 8.11 µM (inactive).

On to `COc1ccc(C2C(C#N)=C(S)N(C3OC(CO)C(O)C(O)C3O)C(C)=C2C(C)=O)cc1` (stereo not given), for which the GI50 with A549 was > 100 µM (inactive); in the assay on BT-549, 92 µM (inactive); in the assay with COLO 205, > 100 µM (inactive); with DU-145 it was > 100 µM (inactive); with HCT-15, more than 100 µM; in the assay on HL-60, 58.7 µM (inactive). Besides, the GI50 with HOP-92 is 29 µM (inactive); in the assay with M14, > 100 µM (inactive); with MDA-MB-435 it was > 100 µM (inactive); with MDA-N, 72.3 µM (inactive); in the assay with NCI-H226, > 100 µM (inactive); with NCI-H522 it was 60.4 µM (inactive). In addition, the GI50 is > 100 µM (inactive) with OVCAR-5; > 100 µM (inactive) with OVCAR-8; 73.1 µM (inactive) in the assay on PC-3; 62.1 µM (inactive) with RPMI-8226; 50 µM (inactive) in the assay on RXF 393; > 100 µM (inactive) in the assay with SF-268. In addition, the GI50 with UACC-257 and in the assay with UO-31 was > 100 µM (inactive) each time.

For the molecule `Cc1cc2ccccc2n1CC(=O)N1CCCC1`, the GI50 with A549 was > 100 µM (inactive); in the assay with BT-549, > 100 µM (inactive); in the assay with COLO 205, > 100 µM (inactive); in the assay on DU-145 it was > 100 µM (inactive); with HCT-15, more than 100 µM; with HL-60 it was > 100 µM (inactive). In addition, the GI50 in the assay on HOP-92, in the assay on M14, with MDA-MB-435, in the assay with MDA-N, in the assay on NCI-H226 and in the assay with NCI-H522 was > 100 µM (inactive) each time. Also, the GI50 in the assay on OVCAR-5, in the assay on OVCAR-8, with PC-3, with RPMI-8226, in the assay on RXF 393 and in the assay on SF-268 was > 100 µM (inactive) in each case. Also, the GI50 in the assay with UACC-257 and in the assay with UO-31 was > 100 µM (inactive) throughout.

For `CCCCC1Cc2cc(O)ccc2-c2nc3cc(O)ccc3n21.CCCCC1Cc2cc(O)ccc2-c2nc3ccc(O)cc3n21` (stereo not given), the GI50 with A549 is 16.3 µM (inactive); in the assay with BT-549 it was 19.2 µM (inactive); with COLO 205, 15.7 µM (inactive); in the assay on DU-145 it was 28.5 µM (inactive); in the assay on HCT-15, 11 µM; with HL-60, 19.1 µM (inactive). Also, the GI50 with HOP-92 is 4.28 µM (inactive); in the assay with M14, 15.3 µM (inactive); with MDA-MB-435 it was 11.9 µM (inactive); in the assay with MDA-N, 14.3 µM (inactive); in the assay on NCI-H226 it was 18.4 µM (inactive); in the assay with NCI-H522, 11.1 µM (inactive). Besides, the GI50 is 16.6 µM (inactive) in the assay on OVCAR-5; 21.4 µM (inactive) with OVCAR-8; 12.6 µM (inactive) in the assay on PC-3; 12.4 µM (inactive) in the assay with RPMI-8226; 19.1 µM (inactive) with RXF 393; 12 µM (inactive) in the assay with SF-268. Also, the GI50 in the assay on UACC-257 was 15.8 µM (inactive); in the assay on UO-31, 13.1 µM (inactive).

In the case of `COC(=O)C12CCC(C(F)(F)C1=O)C2(C)C` (stereo not given), the GI50 is > 100 µM (inactive) with A549; > 100 µM (inactive) in the assay with BT-549; > 100 µM (inactive) in the assay on COLO 205; > 100 µM (inactive) with DU-145; more than 100 µM in the assay with HCT-15; > 100 µM (inactive) in the assay with HL-60. Further, the GI50 in the assay with HOP-92, with M14, with MDA-MB-435, in the assay on MDA-N, in the assay on NCI-H226 and with NCI-H522 was > 100 µM (inactive) in each case. For the same molecule, the GI50 with OVCAR-5, with OVCAR-8, in the assay with PC-3, in the assay on RPMI-8226, in the assay with RXF 393 and in the assay with SF-268 was > 100 µM (inactive) throughout. The GI50 in the assay with UACC-257 and in the assay on UO-31 was > 100 µM (inactive) each time.

With `CC(=O)O[C@H]1C[C@H](O[C@H]2[C@@H](O)C[C@H](O[C@H]3[C@@H](O)C[C@H](O[C@H]4CC[C@@]5(C)[C@H](CC[C@@H]6[C@@H]5CC[C@]5(C)[C@@H](C7=CC(=O)OC7)CC[C@]65O)C4)O[C@@H]3C)O[C@@H]2C)O[C@H](C)[C@H]1O[C@@H]1O[C@H](CO)[C@@H](O)[C@H](O)[C@H]1O`, the GI50 in the assay on A549 was < 0.01 µM (active); in the assay on BT-549 it was < 0.0167 µM (active); with COLO 205 it was 0.0491 µM (active); with DU-145, < 0.01 µM (active); with HCT-15 it was 0.0231 µM; with HL-60, 0.0149 µM (active). Also, the GI50 with HOP-92 is 0.048 µM (active); in the assay on M14, 0.0634 µM (active); with MDA-MB-435 it was 0.034 µM (active); with MDA-N, 0.0398 µM (active); in the assay on NCI-H226, 0.103 µM (active); with NCI-H522 it was < 0.01 µM (active). In addition, the GI50 in the assay with OVCAR-5 is 0.0342 µM (active); in the assay with OVCAR-8 it was 0.0275 µM (active); in the assay with PC-3 it was 0.0152 µM (active); with RPMI-8226, 0.0373 µM (active); in the assay on RXF 393 it was 0.0288 µM (active); in the assay on SF-268 it was < 0.0125 µM (active). In addition, the GI50 with UACC-257 was 0.0726 µM (active); in the assay on UO-31, 0.0242 µM (active).
